Measured values taken from paper PMC10987949, “Inhibition of HIV-1 release by ADAM metalloproteinase inhibitors” (Frontiers in Microbiology, 2024).

Experiments:
CD62L shedding [1] = test: Soluble CD62L ELISA, anti-CD3/PHA stimulated PBMC or CD4 T cells; assay type: cell-based, human; settings: ELISA
Method: PBMC from de-identified healthy donors were obtained with informed consent from the Department of Transfusion Medicine, National Institutes of Health under Biological reagent Registry RD-14-IX-12 approved by NIH biological safety board. […] IL-2 was added at a final concentration of 20 U/mL. CD3 antibody okt3 was used at ~0.2 μg/mL final concentration. […] Supernatants were collected and assessed using either the CD62L or TNF-α Duo Set ELISA kit according to manufacturer’s instructions (R&D Systems, Inc.). The viability of cells treated with compounds was assessed by acridine orange / propidiom iodide (AO/PI Logosbio catalog F23001) staining using Luna-FL cell counter following the manufacture’s instruction.^2

[2] = target: T1, recombinant HIV-1 protease (Human immunodeficiency virus type 1 group M subtype B, UniProt P04585); test: HIV-1 protease fluorogenic substrate cleavage; assay type: biochemical; settings: 100nM saquinavir or nelfinavir; MMP inhibitors up to 10uM
T1 construct: recombinant HIV-1 protease; purchased Sigma-Aldrich SRP2151
Method: HIV-1 protease enzymatic activity was assayed in black 96-well plates at room temperature using a Synergy_h1 fluorescent plate reader with 340 nm excitation and 490 nm emission wavelengths (BioTek). Each enzymatic reaction consisted of a mixture of 100 ng of recombinant HIV-1 protease (Sigma-Aldrich catalog SRP2151), 5 μM concentration of a fluorogenic substrate Arg-Glu(EDANS)-[…]DABCYL)-Arg (Sigma-aldrich catalog H6660), and various concentrations of inhibitor compounds in 100 μL of assay buffer (0.15 M sodium chloride, 1.0 mM EDTA, 1.0 mM DTT, 0.1 M sodium acetate, pH 5.0). The fluorescence of the cleavage reaction was continuously read at every 30 s for a total of 40 min.

HIV-1 = test: Ex vivo HIV-1 release from CD4 T cells of HIV-1 infected individuals; assay type: cell-based; settings: 50 μM; CD4 T cells from six HIV-1 infected individuals; day 2 and 4
Method: PBMCs were collected from the study subjects in accordance with a clinical protocol approved by the Institutional Review Board of the National Institute of Allergy and Infectious Diseases, National Institutes of Health under protocol #02-I-0202. CD4^+ T cells were isolated from the PBMCs using a human CD4 T cell separation system (StemCell Technologies, Catalog 19052) and were cultured with medium alone or with plate-bound anti-CD3 and soluble anti-CD28 antibody in the absence or presence of 50 μM of indicated compounds for 48 h. The copy number of cell-free viron-associated HIV RNA in the culture supernatants was quantified using the Cobas Ampliprep/Cobas Taqman HIV-1 Test, Version 2.0 (Roche Diagnostics) with droplet digital PCR (ddPCR, BIO-RAD) on day 2 and 4 of stimulation.

CD62L shedding [3] = test: Soluble CD62L ELISA, unstimulated PBMC; assay type: cell-based, human; settings: Homo sapiens, PBMC; 10 μM compound; non-stimulated cells; ELISA; read-out: Shedding inhibition Non-stim.
Method: PBMC from de-identified healthy donors were obtained with informed consent from the Department of Transfusion Medicine, National Institutes of Health under Biological reagent Registry RD-14-IX-12 approved by NIH biological safety board. CD8-depleted PBMCs, either stimulated or non-stimulated with 10 μg/mL phytohaemagglutinin (PHA) or anti-CD3 antibody (with or without conjugated beads), were plated at 2×10^6 cells/ml in 48 well plates in RPMI 1640 + 10%FBS (R10) to a final volume of 1 mL in each well. IL-2 was added at a final concentration of 20 U/mL. CD3 antibody okt3 was used at ~0.2 μg/mL final concentration. […] Supernatants were collected and assessed using either the CD62L or TNF-α Duo Set ELISA kit according to manufacturer's instructions (R&D Systems, Inc.). The viability of cells treated with compounds was assessed by acridine orange / propidiom iodide (AO/PI Logosbio catalog F23001) staining using Luna-FL cell counter following the manufacture's instruction.^2 […] Supplemental Figure 1. CD62L shedding from unstimulated PBMC. A) Soluble CD62L in the supernatant of unstimulated PBMC was measured By ELISA (R&D systems, Inc) after 24 hour treatment in the presence of 10 μM of […]), aminopeptidase (AP) protease inhibitors, respectively, or their untreated controls. Statistics were calculated using unpaired parametric student t-test between individual treatment and DMSO control. […] B) Viability of PBMC treated with 10-500 μM of MMP inhibitors for 24hours. […] Untreated DMSO AEBSF 3,4-Dichloroisocouman Granzyme B Inhibitor II Granzyme B Inhibitor IV Aprotinin […] 3 4 CD62L shedding from unstimulated PBMC Soluble CD62L (ng/ml) Inhibitor Class […] GI254023X 10 GI254023X 100 […] GI254023X 1000 GW280264X 10 GW280264X 100 […] GW280264X 1000 Marimastat 10 Marimastat 100 Marimastat 250 […]

For `CNC(=O)[C@H](Cc1c[nH]c2ccccc12)NC(=O)[C@@H](CC(=O)NO)CC(C)C` [GM6001], the inhibition at 10 µM (CD62L shedding [1]; Homo sapiens, 10 μM compound, stimulated cells) was 20 to 50%, the “effect on CD62L shedding / soluble CD62L” value (CD62L shedding [1]; stimulated PBMC or CD4 T cells) was “suppressed CD62L shedding” and the “effect on HIV protease cleavage of fluorogenic substrate” value [2] was “none of the MMP inhibitors, including BB-94, prinomastat, GM6001 and DMDP, inhibited the activity of HIV protease”. For the same compound, the “effect on viral release (virion-associated HIV RNA)” value (HIV-1) was “inhibited viral release in a portion of the samples” and the inhibition at 10 µM (CD62L shedding [3]) was 20 to 50%.
